target: human LPAR1 (Homo sapiens, UniProt Q92633); assay: LPAR1 intracellular calcium mobilization assay (antagonist mode)
Sequence (Q92633 whole entry): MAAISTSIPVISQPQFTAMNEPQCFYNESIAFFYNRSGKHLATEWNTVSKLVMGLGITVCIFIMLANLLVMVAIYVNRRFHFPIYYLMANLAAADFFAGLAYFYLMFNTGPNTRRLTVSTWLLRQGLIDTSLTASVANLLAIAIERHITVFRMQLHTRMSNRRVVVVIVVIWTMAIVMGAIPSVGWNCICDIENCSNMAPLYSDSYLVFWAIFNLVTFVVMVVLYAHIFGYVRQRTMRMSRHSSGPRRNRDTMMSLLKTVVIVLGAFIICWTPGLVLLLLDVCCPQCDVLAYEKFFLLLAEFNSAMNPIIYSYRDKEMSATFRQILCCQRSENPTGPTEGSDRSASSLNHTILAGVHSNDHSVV

Row | EC50 | SMILES
1 | 0.023 µM | Cc1nc(-c2nnn(C)c2NC(=O)O[C@H](C)c2cscc2Cl)ccc1NS(C)(=O)=O [Compound 138, (R)-1-(4-chlorothiophen-3-yl)ethyl (1-methyl-4-(6-methyl-5-(methylsulfonamido)pyridin-2-yl)-1H-1,2,3-triazol-5-yl)carbamate]
2 | 0.0181 µM | Cc1nc(-c2nnn(CC#N)c2NC(=O)O[C@H](C)c2ccccc2Cl)ccc1NS(C)(=O)=O [Compound 96, (R)-1-(2-chlorophenyl)ethyl(1-(cyanomethyl)-4-(6-methyl-5-(methylsulfonamido)pyridin-2-yl)-1H-1,2,3-triazol-5-yl)carbamate]
3 | 0.0284 µM | C[C@@H](OC(=O)Nc1c(-c2ccc(NS(C)(=O)=O)cn2)nnn1C)c1cccc(F)c1 [Compound 95, (R)-1-(3-fluorophenyl)ethyl(1-methyl-4-(5-(methylsulfonamido)pyridin-2-yl)-1H-1,2,3-triazol-5-yl)carbamate]
4 | 0.0554 µM | Cc1nc(-c2nnn(C)c2NC(=O)O[C@H](C)c2ccccc2Cl)ccc1N(C)S(C)(=O)=O [Compound 86, (R)-1-(2-chlorophenyl)ethyl(1-methyl-4-(6-methyl-5-(N-methylmethylsulfonamido)pyridin-2-yl)-1H-1,2,3-triazol-5-yl)carbamate]
5 | 0.325 µM | Cc1nc(-c2nnn(C)c2NC(=O)OCCCC(C)C)ccc1NS(C)(=O)=O [Compound 29, 4-methylpentyl (1-methyl-4-(6-methyl-5-(methylsulfonamido)pyridin-2-yl)-1H-1,2,3-triazol-5-yl)carbamate]
6 | 1.63 µM | Cc1nc(-c2nnn(C)c2NC(=O)O[C@H](C)c2cccnc2)ccc1NS(C)(=O)=O [Compound 67, (R)-1-(pyridin-3-yl)ethyl (1-methyl-4-(6-methyl-5-(methylsulfonamido)pyridin-2-yl)-1H-1,2,3-triazol-5-yl)carbamate]
7 | 0.24 µM | C[C@@H](OC(=O)Nc1c(-c2ccc(NS(=O)(=O)NC3CC3)cn2)nnn1C)c1cccnc1Cl [Compound 159, (R)-1-(2-chloropyridin-3-yl)ethyl (4-(5-((N-cyclopropylsulfamoyl)amino)pyridin-2-yl)-1-methyl-1H-1,2,3-triazol-5-yl)carbamate]
8 | 0.0461 µM | Cc1ccccc1[C@@H](C)OC(=O)Nc1c(-c2ccc(NS(C)(=O)=O)c(C)n2)nnn1C [Compound 42, (R)-1-(o-tolyl)ethyl (1-methyl-4-(6-methyl-5-(methylsulfonamido)pyridin-2-yl)-1H-1,2,3-triazol-5-yl)carbamate]
9 | 0.438 µM | [2H]C([2H])([2H])N(c1ccc(-c2nnn(C)c2NC(=O)O[C@H](C)c2cccnc2Cl)nc1C)S(C)(=O)=O [Compound 164, (R)-1-(2-chloropyridin-3-yl)ethyl (1-methyl-4-(6-methyl-5-(N-(methyl-d3)methylsulfonamido)pyridin-2-yl)-1H-1,2,3-triazol-5-yl)carbamate]
10 | 0.0053 µM | C[C@@H](OC(=O)Nc1c(-c2ccc(NS(C)(=O)=O)cn2)nnn1C)c1ccccc1F [Compound 16, (R)-1-(2-fluorophenyl)ethyl (1-methyl-4-(5-(methylsulfonamido)pyridin-2-yl)-1H-1,2,3-triazol-5-yl)carbamate]
11 | 0.0488 µM | C[C@@H](OC(=O)Nc1c(-c2ccc(NS(C)(=O)=O)cn2)nnn1C)c1cc(F)cnc1F [Compound 114, (R)-1-(2,5-difluoropyridin-3-yl)ethyl (1-methyl-4-(5-(methylsulfonamido)pyridin-2-yl)-1H-1,2,3-triazol-5-yl)carbamate]
12 | 0.218 µM | C[C@@H](OC(=O)Nc1c(-c2ccc(NS(C)(=O)=O)cn2)nnn1C)c1cc(F)ncc1F [Compound 117, (R)-1-(2,5-difluoropyridin-4-yl)ethyl (1-methyl-4-(5-(methylsulfonamido)pyridin-2-yl)-1H-1,2,3-triazol-5-yl)carbamate]
13 | 0.272 µM | Cc1nc(-c2nnn(C)c2NC(=O)OC(C)c2cc(Br)cnc2Cl)ccc1NS(C)(=O)=O (centres unmarked) [Compound 130, 1-(5-bromo-2-chloropyridin-3-yl)ethyl (1-methyl-4-(6-methyl-5-(methylsulfonamido)pyridin-2-yl)-1H-1,2,3-triazol-5-yl)carbamate]
14 | 0.172 µM | Cc1cccc(COC(=O)Nc2c(-c3ccc(NS(C)(=O)=O)c(C)n3)nnn2C)c1 [Compound 37, 3-methylbenzyl (1-methyl-4-(6-methyl-5-(methylsulfonamido)pyridin-2-yl)-1H-1,2,3-triazol-5-yl)carbamate]
15 | 0.33 µM | Cc1nc(-c2nnn(C)c2NC(=O)O[C@H](C)c2ccc(F)nc2C)ccc1NS(C)(=O)=O [Compound 143, (R)-1-(6-fluoro-2-methylpyridin-3-yl)ethyl (1-methyl-4-(6-methyl-5-(methylsulfonamido)pyridin-2-yl)-1H-1,2,3-triazol-5-yl)carbamate]
16 | 0.256 µM | C[C@@H](OC(=O)Nc1c(-c2ncc(NS(C)(=O)=O)cc2F)nnn1C)c1cccc(F)c1 [Compound 88, (R)-1-(3-fluorophenyl)ethyl(4-(3-fluoro-5-(methylsulfonamido)pyridin-2-yl)-1-methyl-1H-1,2,3-triazol-5-yl)carbamate]

Row | EC50 | SMILES
17 | 0.0386 µM | Cc1nc(-c2nnn(C)c2NC(=O)O[C@@H](c2ccccc2)C(F)(F)F)ccc1NS(C)(=O)=O [Compound 94, (S)-2,2,2-trifluoro-1-phenylethyl(1-methyl-4-(6-methyl-5-(methylsulfonamido)pyridin-2-yl)-1H-1,2,3-triazol-5-yl)carbamate]
18 | 0.271 µM | Cc1nc(-c2nnn(C)c2NC(=O)OC(C)c2cnc(F)cc2Cl)ccc1NS(C)(=O)=O (centres unmarked) [Compound 129, 1-(4-chloro-6-fluoropyridin-3-yl)ethyl (1-methyl-4-(6-methyl-5-(methylsulfonamido)pyridin-2-yl)-1H-1,2,3-triazol-5-yl)carbamate]
19 | 1.3 µM | Cc1nc(-c2nnn(C)c2NC(=O)O[C@H](C)c2cc(F)cnc2C#N)ccc1NS(C)(=O)=O [Compound 152, 1-(2-cyano-5-fluoropyridin-3-yl)ethyl (1-methyl-4-(6-methyl-5-(methylsulfonamido)pyridin-2-yl)-1H-1,2,3-triazol-5-yl)carbamate]
20 | 2.3 µM | Cc1ccncc1C(C)OC(=O)Nc1c(-c2ccc(NS(C)(=O)=O)c(C)n2)nnn1C (centres unmarked) [Compound 82, 1-(4-methylpyridin-3-yl)ethyl (1-methyl-4-(6-methyl-5-(methylsulfonamido)pyridin-2-yl)-1H-1,2,3-triazol-5-yl)carbamate]
21 | 0.284 µM | Cc1cccc(COC(=O)Nc2c(-c3ccc(NS(C)(=O)=O)cn3)nnn2C)c1 [Compound 19, 3-methylbenzyl (1-methyl-4-(5-(methylsulfonamido)pyridin-2-yl)-1H-1,2,3-triazol-5-yl)carbamate]
22 | 0.282 µM | Cc1nc(-c2nnn(C)c2NC(=O)O[C@H](C)c2cc(F)c(F)cc2F)ccc1NS(C)(=O)=O [Compound 90, (R)-1-(2,4,5-trifluorophenyl)ethyl(1-methyl-4-(6-methyl-5-(methylsulfonamido)pyridin-2-yl)-1H-1,2,3-triazol-5-yl)carbamate]
23 | 0.278 µM | Cc1nc(-c2nnn(C)c2NC(=O)O[C@H](C)c2cccc(F)c2)ccc1NS(=O)(=O)C(C)C [Compound 105, (R)-1-(3-fluoro-phenyl)ethyl(1-methyl-4-(6-methyl-5-((1-methylethyl)sulfonamido)pyridin-2-yl)-1H-1,2,3-triazol-5-yl)carbamate]
24 | 0.313 µM | Cc1nc(-c2nnn(C)c2NC(=O)O[C@H](C)c2cccc(F)c2)ccc1NS(=O)(=O)C1CC1 [Compound 106, (R)-1-(3-fluoro-phenyl)ethyl(4-(5-(cyclopropane-sulfonamido)-6-methylpyridin-2-yl)-1-methyl-1H-1,2,3-triazol-5-yl)carbamate]
25 | 0.22 µM | Cc1nc(-c2nnn(C)c2NC(=O)OCc2cc(F)ccc2F)ccc1NS(C)(=O)=O [Compound 36, 2,5-difluorobenzyl (1-methyl-4-(6-methyl-5-(methylsulfonamido)pyridin-2-yl)-1H-1,2,3-triazol-5-yl)carbamate]
26 | 0.0314 µM | C[C@@H](OC(=O)Nc1c(-c2ncc(NS(C)(=O)=O)cc2F)nnn1C)c1ccccc1Cl [Compound 89, (R)-1-(2-chlorophenyl)ethyl(4-(3-fluoro-5-(methylsulfonamido)pyridin-2-yl)-1-methyl-1H-1,2,3-triazol-5-yl)carbamate]
27 | 0.461 µM | CC(OC(=O)Nc1c(-c2ccc(NS(C)(=O)=O)cn2)nnn1C)c1c(F)ccnc1Cl (centres unmarked) [Compound 121, 1-(2-chloro-4-fluoropyridin-3-yl)ethyl (1-methyl-4-(5-(methylsulfonamido)pyridin-2-yl)-1H-1,2,3-triazol-5-yl)carbamate]
28 | 0.0123 µM | C[C@@H](OC(=O)Nc1c(-c2ccc(NS(C)(=O)=O)cn2)nnn1C)c1cc(Cl)sc1Cl [Compound 110, (R)-1-(2,5-dichlorothiophen-3-yl)ethyl (1-methyl-4-(5-(methylsulfonamido)pyridin-2-yl)-1H-1,2,3-triazol-5-yl)carbamate]
29 | 0.065 µM | Cc1nc(-c2nnn(C)c2NC(=O)O[C@H](C)c2cccc(Cl)c2)ccc1NS(C)(=O)=O [Compound 41, (R)-1-(3-chlorophenyl)ethyl (1-methyl-4-(6-methyl-5-(methylsulfonamido)pyridin-2-yl)-1H-1,2,3-triazol-5-yl)carbamate]
30 | 0.0599 µM | Cc1nc(-c2nnn(C)c2NC(=O)O[C@H](C)c2cc(Cl)ccc2F)ccc1NS(C)(=O)=O [Compound 56, (R)-1-(5-chloro-2-fluorophenyl)ethyl (1-methyl-4-(6-methyl-5-(methylsulfonamido)pyridin-2-yl)-1H-1,2,3-triazol-5-yl)carbamate]
31 | 0.114 µM | Cc1nc(-c2nnn(CC#N)c2NC(=O)O[C@@H](c2ccccc2)C(F)F)ccc1NS(C)(=O)=O [Compound 100, (S)-2,2-difluoro-1-phenylethyl(1-(cyanomethyl)-4-(6-methyl-5-(methylsulfonamido)pyridin-2-yl)-1H-1,2,3-triazol-5-yl)carbamate]
32 | 0.277 µM | Cc1nc(-c2nnn(C)c2NC(=O)O[C@H](C)c2cccc(Cl)c2F)ccc1NS(C)(=O)=O [Compound 24, (R)-1-(3-chloro-2-fluorophenyl)ethyl (1-methyl-4-(6-methyl-5-(methylsulfonamido)pyridin-2-yl)-1H-1,2,3-triazol-5-yl)carbamate]

Source: US11548871B2, “Triazole carbamate pyridyl sulfonamides as LPA receptor antagonists and uses thereof” (Gilead Sciences, Inc., priority 2019, dated 2023)
